Experimental data: patent publication US12629336B2, “Compositions and methods of use thereof for treatment of mastitis” (CureMast, Inc., priority 2020, dated 2026)
Values joined by “and” are separate entries in the source; they are usually repeats but may differ in a detail not shown here. Equal values may be shown once. Read-outs that look alike come from different tables or passages of the source.

Experiments:
[1] = paper chromatography: migration/release of NAC from monoolein emulsions; assay type: physicochemical; conditions: deionized water as solvent, tetrazolium/ammonia detection
Text: Paper chromatography was utilized to evaluate the release of soluble NAC from the formulations of Examples 1 and 2 using a colorimetric reagent to develop the chromatograms as follows:
Three strips of chromatography paper were marked with pencil to indicate the “origin” and spotted with a small dot of each of the two samples. The third strip was spotted with a drop of aqueous NAC only. Each strip was suspended in a separate jar with deionized water just covering the bottom of the jar. The bottom edge of each paper strip was positioned to be immersed in water, which gradually migrated up the strip. After upward water migration wet approximately 6 to 8 cm of the paper, the “solvent front” was marked with pencil and the strips were allowed to dry completely.
Tetrazolium blue chloride (Sigma no. T4375, lot no. SHBM0991) was dissolved in denatured ethyl alcohol to obtain a 1% solution and transferred to a small spray bottle. The dry chromatography strips were placed in a chemical fume hood, sprayed with the tetrazolium solution, and allowed to dry again. An ammonia chamber was created by coving the bottom of a large glass canister with concentrated ammonium hydroxide and the chromatography paper strips were suspended just above the liquid with the canister covered until a purple color developed, indicating the presence of NAC.

bacteria = conditions: in vitro; value in brackets; cited from earlier work
epithelial cells = conditions: in vitro, cited from earlier work

CC(=O)N[C@@H](CS)C(=O)O [aqueous NAC, N-acetyl-L-cysteine]
Rf value of NAC [1]: 0.91 and 0.67
migration of NAC from the origin [1]: migrated from the origin

polyhexamethylene biguanide hydrochloride [PHMB]
minimum inhibitory concentration (MIC) required to kill bacteria (bacteria): 0.01%
cytotoxic limit (CTL) above which epithelial cells are killed (epithelial cells): greater than 15 mg per liter
cytotoxic limit (CTL) above which epithelial cells are killed (epithelial cells; value in brackets): > 0.15%
